Each structure is given as a SMILES string.

This note sets out measurements from the OPERA property sets (Mansouri et al. 2018).

Conditions in one series: not given
`CC(=O)c1cccs1` displayed a boiling point of 214 °C and a melting point of 10.5 °C.

For `O=C(O)c1c(Cl)ccc(Cl)c1Cl`, the log10 vapour pressure (mmHg) was -3.26, the melting point worked out at 124 °C and the ready biodegradability result is listed as “not readily biodegradable”.

As for `CCOC(=O)c1cccs1`, the boiling point turned out to be 218 °C.

`CC=C(C)CC`: the boiling point is 69 °C, the log10 vapour pressure (mmHg) came out at 2.2 and the melting point is -137 °C.

In turn, `CCCCCCCCCCCCCCCCCc1ccccc1` registered a boiling point of 397 °C and a melting point of 32 °C.

The molecule `C=CC[C@]1(O)CC[C@H]2[C@@H]3CCC4=CC(=O)CCC4=C3C=C[C@@]21C` showed a melting point of 120 °C.

Turning to `CC(C)c1cccc(C(C)C)c1`, the boiling point is 203 °C, the log10 vapour pressure (mmHg) is -0.406 and the melting point was -63.1 °C.

`COCCC(=O)OC` came in with a boiling point of 143 °C.

For `CCOC(=O)CI`, the boiling point was 179 °C and the log10 vapour pressure (mmHg) was -0.195.

Molecule `C=C(CC)CCC` came in with a boiling point of 94 °C.

Turning to `O=C(O)/C=C/c1ccccc1C(F)(F)F`, the melting point is 206 °C.

`C[C@]12CCC(=O)C(O)=C1CC[C@@H]1[C@@H]2CC[C@@]2(C)[C@H]1CC[C@]2(C)O` displayed a melting point of 170 °C.

Consider `CCCCCCCCCCOC(=O)Cl`, for which the boiling point came to 220 °C and the log10 vapour pressure (mmHg) is -1.59.

On to `CCCCCCCCCCCCCCCC(OC)OC`, for which the melting point is 10 °C.

Molecule `C=C(C)C(C)(C)CC` registered a boiling point of 108 °C, a log10 vapour pressure (mmHg) of 1.48 and a melting point of -69 °C.

`O=C(Nc1ccccc1)c1cc(Cl)ccc1O` gave a melting point of 211 °C.

As for `Clc1cc2c(cc1Cl)Oc1c(cc(Cl)c(Cl)c1Cl)O2`, the log10 Koa turned out to be 10.6, the log10 vapour pressure (mmHg) was -9.36 and the melting point was determined as 240 °C.

On to `NS(=O)(=O)c1ccc(CCCO)cc1`, for which the melting point came out at 95.5 °C.

In the case of `FC(F)(F)C(Cl)=CCl`, the boiling point is 53.7 °C and the melting point was -109 °C.

The molecule `CCN(CC)CCC1(c2ccccc2)C(=O)Oc2ccccc21` (centres undefined) showed a melting point of 43.4 °C.

With `CCC(Br)(CC)C(=O)NC(=O)NC(C)=O`, the melting point was determined as 109 °C.

The molecule `N#Cc1ccc(N)cc1Cl` returned a melting point of 118 °C.

With `FC(F)(F)C1(F)C(F)(F)C(F)(F)C(F)(F)C(F)(F)C1(F)C(F)(F)F` (centres undefined), the ready biodegradability result was “not readily biodegradable”.

Molecule `Cc1cc(C)c(C)c(O)c1` registered a boiling point of 230 °C, a log10 Koc (L/kg) of 3.61, a log10 vapour pressure (mmHg) of -2.42 and a melting point of 93.5 °C.

With `Nc1ccc(Cl)cc1[N+](=O)[O-]`, the melting point is 116 °C and the ready biodegradability result is recorded as “not readily biodegradable”.

On to `COc1ccc(C(C)=O)c(O)c1`, for which the melting point stood at 52.5 °C.

In turn, `O=S(=O)(Cc1ccccc1)Cc1ccccc1` registered a melting point of 152 °C.

With `Cc1ccc2cc3c(ccc4ccccc43)cc2c1`, the melting point worked out at 152 °C.

Turning to `CC=C(Br)Br`, the boiling point is 125 °C.

Molecule `CCO[Si](CCC#N)(OCC)OCC` came in with a boiling point of 224 °C.

`c1ccc2c(c1)ccc1cc3c(ccc4ccccc43)cc12` registered a boiling point of 524 °C, a log10 Koc (L/kg) of 6.22, a log10 biodegradation half-life (days) of 2.62 and a log10 vapour pressure (mmHg) of -9.02. Besides, the melting point turned out to be 270 °C and the ready biodegradability entry is given as “not readily biodegradable”.

Take `CC#Cc1cc(C)nc(Nc2ccccc2)n1`: the log10 vapour pressure (mmHg) is -6.76 and the melting point was determined as 133 °C.

For `c1ccc2c(c1)oc1ccccc12`, the boiling point was found to be 287 °C, the log10 Koc (L/kg) is 3.91, the log10 vapour pressure (mmHg) is -2.61 and the melting point was 86.5 °C. In addition, the ready biodegradability entry is “readily biodegradable”.

`CC(=O)OC/C=C(\C)CCC=C(C)C` displayed a boiling point of 238 °C and a log10 vapour pressure (mmHg) of -1.48.

`CC(=O)Nc1ccc(C)cc1C` registered a melting point of 129 °C.

As to `Cc1ccc(C(C)C)cc2c(C)ccc1-2`, the melting point turned out to be 31.5 °C.

As for `Nc1ccc(-c2ccc(N)c(Cl)c2)cc1Cl`, the boiling point worked out at 368 °C, the log10 Koc (L/kg) stood at 4.35, the melting point was 132 °C and the ready biodegradability entry was “not readily biodegradable”.

Consider `CCOC(=O)c1ccc(NC(=O)CCl)cc1`, for which the ready biodegradability entry is “readily biodegradable”.

`c1ccc([Se][Se]c2ccccc2)cc1` displayed a melting point of 63.5 °C.

Take `CCNc1nc(Cl)nc(NC(C)C)n1`: the log10 Koc (L/kg) came out at 2.24, the log10 vapour pressure (mmHg) is -6.54, the melting point was 173 °C and the ready biodegradability entry is recorded as “not readily biodegradable”.

Turning to `O=Cc1ccc([N+](=O)[O-])cc1[N+](=O)[O-]`, the melting point was 72 °C.

In the case of `CC1=NN(c2cc(Cl)c(S(=O)(=O)O)cc2Cl)C(=O)C1`, the ready biodegradability entry is given as “not readily biodegradable”.

Take `S=c1sc2nc3ccccc3nc2s1`: the melting point was determined as 180 °C.

The series is the same for the next values; noted with them: fish.
The molecule `Cc1c(Br)c(Br)c(Br)c(Br)c1Br` had a log10 BCF of 2.43 and a log10 biotransformation half-life (days) of -0.13.

`Cc1ccc2cc3ccccc3cc2c1` came in with a log10 biotransformation half-life (days) of -0.02.

`Cc1cc(O)ccc1Cl` registered a log10 BCF of 0.93 and a log10 biotransformation half-life (days) of -1.28.

`O=C(O)c1c(Cl)ccc(Cl)c1Cl`: the log10 BCF turned out to be 0.54.

As to `CC(C)c1cccc(C(C)C)c1`, the log10 BCF was determined as 3.28 and the log10 biotransformation half-life (days) was 0.56.

In turn, `Clc1cc2c(cc1Cl)Oc1c(cc(Cl)c(Cl)c1Cl)O2` displayed a log10 BCF of 4.26 and a log10 biotransformation half-life (days) of 1.56.

As for `Nc1ccc(Cl)cc1[N+](=O)[O-]`, the log10 BCF turned out to be 1.04 and the log10 biotransformation half-life (days) is -0.96.

`c1ccc2c(c1)ccc1cc3c(ccc4ccccc43)cc12` gave a log10 biotransformation half-life (days) of 0.21.

`c1ccc2c(c1)oc1ccccc12` returned a log10 BCF of 3.18 and a log10 biotransformation half-life (days) of 1.35.

On to `Nc1ccc(-c2ccc(N)c(Cl)c2)cc1Cl`, for which the log10 BCF was found to be 2.16 and the log10 biotransformation half-life (days) was -0.13.

Consider `CCNc1nc(Cl)nc(NC(C)C)n1`, for which the log10 BCF came to 0.9 and the log10 biotransformation half-life (days) was -1.05.

Molecule `CC1=NN(c2cc(Cl)c(S(=O)(=O)O)cc2Cl)C(=O)C1` returned a log10 BCF of 1.51.
